Source: patent US20200190172A1, “METHOD FOR DIAGNOSING/DETERMINING THE EFFECTIVENESS OF TREATMENT FOR DEPRESSION” (Centre National De La Recherche Scientifique, priority 2016, published 2020)
Where no end group is shown, it is not given here.

T1: TREK-1 potassium channel (Mus musculus, UniProt P97438)
T1 construct: host or cells: living mice (endogenous channel)
T1 sequence (P97438 1-426): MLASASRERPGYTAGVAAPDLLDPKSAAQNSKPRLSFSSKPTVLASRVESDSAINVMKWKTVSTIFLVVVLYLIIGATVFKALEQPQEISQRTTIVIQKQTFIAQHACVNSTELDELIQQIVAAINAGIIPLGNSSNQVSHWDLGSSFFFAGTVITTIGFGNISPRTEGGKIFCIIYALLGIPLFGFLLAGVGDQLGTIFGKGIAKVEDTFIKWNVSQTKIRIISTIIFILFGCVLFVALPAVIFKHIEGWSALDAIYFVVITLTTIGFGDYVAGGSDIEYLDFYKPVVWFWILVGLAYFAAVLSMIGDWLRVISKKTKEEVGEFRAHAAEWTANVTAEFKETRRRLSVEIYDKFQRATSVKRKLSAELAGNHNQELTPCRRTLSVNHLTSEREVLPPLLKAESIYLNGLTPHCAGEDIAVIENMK


Legend:
AB2 polyclonal antibody = assay: Recognition of PE fragments by AB2 polyclonal antibody (FIG. 1A); format: binding, rabbit
Excerpt: FIG. 1: FIG. 1A is a diagram representing the structure/recognition relationships of the antibodies AB1 and AB2 according to the different fragments. […] FIGS. 1B and 1C represent the relative affinities for spadin, PE and analogs assayed by the detection method.
In particular, antibodies AB1 and AB2 were obtained by injecting into two rabbits, namely Oryctolagus cuniculus, spadin coupled to KLH (Keyhole limpet hemocyanin protein) (AB1) or mini-spadin (22-28 PE) coupled to KLH (AB2) on day 0, DO (1 mg), day 7, D7 (1 mg), day 14, D14 (1 mg) and day 29, D29 (1 mg). Blood samples, namely 20 ml, were taken on day 27 (D27) and day 42 (D42). The polyclonal serum was obtained by centrifuging at 1200×g for 10 min. The polyclonal serum corresponding to the supernatant was recovered. The immune response was checked by ELISA for each antibody. The antibodies contained in the serum were kept at −20° C.

mice = assay: Porsolt Forced Swim Test (FST); format: in vivo, mice (C57BL/6J); settings: for immobility time compared to saline solution: FST, final 4 min of 6 min, p<0.0001 spadin, 12-27 PE, 22-28 PE, p=0.0026 14-25 PE; for Antidepressant activity: Porsolt Forced Swim Test, intravenous injection, mice
Method: The experiments were performed on males of 20-25 g C57BL/6J of 8-10 weeks old (January France Elevage) in accordance with the policies on the welfare and use of laboratory animals set out in European Community Directive 2010/63/EU. The local ethics committee (CIEPAL) has approved the protocols used in this study (Protocol Number 00.893.02).
After intravenous injection of saline solution or various tested peptides, the mice (n=10-12 per group) were placed individually in a cylinder (height: 30 cm, diameter: 15 cm) filled with water to a depth of 12 cm (temperature: 22±1° C.) for 6 min. The total immobility time was recorded during the final 4 min (Porsolt et al., 1977).

[1] = system: anti-spadin antibodies (AB1 polyclonal antibody); assay: AlphaLISA competition assay: biotinylated spadin / anti-spadin antibody displaced by peptides; format: binding, rabbit; settings: for recognition by the anti-spadin antibodies (AB1): AlphaLISA, FIG. 1A-1C; for IC50: competition with 10 nM biotinylated spadin, antibody 1:1000
Method: The antibody used was the AB1 antibody, as mentioned above.
When two microbeads (acceptors and donors) were in close proximity, the signal was produced by a molecular interaction between the binding partners on the beads. The propeptide present in the serum sample was able to interfere with this interaction leading to competition. […] After the addition of donor and acceptor beads and an additional incubation for 2 hours at room temperature, the plates were read using an Enspire reader (Perkin). […] The quantity of propeptide was determined from its signal percent inhibition and calculated using the standard curve.

TREK-1 potassium channel = biological target: T1, TREK-1 potassium channel; settings: injected intravenously or intraperitoneally into mice; by inhibiting TREK-1 channel activity; cited from earlier work
[2] = Stability of PE in human serum (AlphaLISA); format: in vitro ADME; settings: serum with or without EDTA, room temperature (22° C.), 24 h
Method: FIG. 3: FIG. 3 is a histogram representing the stability of PE in the human serum. Serums with or without EDTA (n=7 for each matrix) from healthy blood donors were tested for their stability at room temperature for 24 h. The PE concentration for each incubation period was determined using an AlphaLISA assay method. The average concentrations at the different points in time are expressed as an average ±SEM.
The antidepressant activity of the analogs was tested using the FST. […] (Ordinarily ANOVA, F5.54=20.21, **** p<0.0001 for spadin, 12-27 PE and 22-28 fragments compared to saline mice treated with a saline solution, ** p=0.0026 for 14-25 PE fragment compared to saline mice treated with a saline solution; error bars, average ±SEM). […] A study of the stability of PE in human serum was carried out. FIG. 3 is a histogram representing the stability of PE in human serum. Serums with or without EDTA (n=7 for each matrix) from healthy blood donors were tested for their stability at room temperature (22° C.) for 24 h. The PE concentration for each incubation period was determined using an AlphaLISA assay method. In FIG. 3, the average concentrations at the different time points are expressed as an average ±SEM. […] The unpaired t test for the PE concentration between serum and EDTA-serum indicated no significant difference for each time.

[3] = biological target: polyclonal antibodies (AB1) directed against the peptide of sequence … (Spadin); assay: AlphaLISA competition, unlabelled peptide against 10 nM biotinylated spadin on AB1 (1:1000)
[4] = biological target: polyclonal antibodies (AB1) directed against the peptide of sequence … (Spadin); assay: AlphaLISA competition against biotinylated spadin (differs from Table 2)

Molecule | Antidepressant activity (mice) | recognition by the anti-spadin antibodies (AB1) [1] | IC50 [1] [nM] | IC50 [3] [nM] | further results
APLPRWSGPIGVSWGLR [spadin] | showed an antidepressant activity | recognized | 2.5 |  | binding by AB2 polyclonal antibody (AB2 polyclonal antibody): bound; immobility time compared to saline solution (mice): shorter immobility time; Antidepressant activity (mice; listed as spadin 12-28 PE): Yes; recognition by the anti-spadin antibodies (AB1) ([1]; listed as SEQ ID NO 2): binds; antidepressant (AD) activities (TREK-1 potassium channel): powerful antidepressant (AD) activities
GVSWGLR [22-28 PE, peptide fragment 22 to 28 of the propeptide] | Yes | not recognized | > 1000 |  | binding by AB2 polyclonal antibody (AB2 polyclonal antibody): bound; immobility time compared to saline solution (mice): shorter immobility time; recognition by the anti-spadin antibodies (AB1) ([1]; listed as SEQ ID NO 6): sole exception
APLPRWSGPIGVSWGL [12-27 PE, peptide fragment 12 to 27 of the propeptide] | showed an antidepressant activity and Yes | recognized | 1.73 |  | immobility time compared to saline solution (mice): shorter immobility time; recognition by the anti-spadin antibodies (AB1) ([1]; listed as SEQ ID NO 3): binds
LPRWSGPIGVSW [14-25 PE, peptide fragment 14 to 25 of the propeptide] | showed an antidepressant activity and Yes | recognized | 3.44 |  | immobility time compared to saline solution (mice): shorter immobility time; recognition by the anti-spadin antibodies (AB1) ([1]; listed as SEQ ID NO 4): binds
WSGPI [SEQ ID NO 5] |  | binds |  |  | 
QDRLDAPPPPAAPLPR [1-16 PE, peptide fragment 1 to 16 of the propeptide] | No | not recognized | > 1000 |  | 
QDRLDAPPPPAAPLPRWSGPIGVSWGLRAAAAGGAFPRGGRWRR [PE] |  |  |  |  | stability of PE in human serum [2]: stability of the SLI measurement for 24 hours at room temperature
C[C@H](N)C(=O)NCC(=O)N[C@H]1CSSC[C@@H](C(=O)O)NC(=O)[C@H](CO)NC(=O)[C@H]([C@@H](C)O)NC(=O)[C@H](Cc2ccccc2)NC(=O)[C@H]([C@@H](C)O)NC(=O)[C@H](CCCCN)NC(=O)[C@H](Cc2c[nH]c3ccccc23)NC(=O)[C@H](Cc2ccccc2)NC(=O)[C@H](Cc2ccccc2)NC(=O)[C@H](CC(N)=O)NC(=O)[C@H](CCCCN)NC1=O [somatostatin-14, reference compound] |  | not recognized |  |  | recognition by the anti-spadin antibodies (AB1) ([1]; listed as somatostatin): incapable of interfering
APLPRWSGPIGVSWGL [12-27 PE] |  |  |  | 1.73 | IC50 [4]: 3.44 nM
APLPRWSGPIGVSWGLR [spadin 12-28 PE] |  |  |  | 2.5 | 
QDRLDAPPPPAAPLPR [1-16 PE (pro-spadin)] |  |  |  | > 1000 | 
LPRWSGPIGVSW [14-25 PE] |  |  |  | 3.44 | IC50 [4]: 1.73 nM
QDRLDAPPPPAAPLPRWSGPIGVSWGLRAAAAGGAFPRGGRWRR [Propeptide (PE) 44AA] |  |  |  | 2.18 | 
GVSWGLR [22-28 PE] |  |  |  | > 1000 | 
